Data: ChEMBL document CHEMBL3885881, “DrugMatrix”

Organism: Rattus norvegicus
Assay: DrugMatrix - Regimen: Daily Repeat
Format: toxicity, organism-based, Sprague-Dawley
Parameters: regimen Daily Repeat, gender Male, age 6-8 weeks
Settings: in vivo, iv, vehicle 100 % SALINE; for ABSOLUTE BASOPHIL / ABSOLUTE EOSINOPHIL / ABSOLUTE LYMPHOCYTE / ABSOLUTE MONOCYTE / ABSOLUTE SEGMENTED NEUTROPHIL / BASOPHIL / EOSINOPHIL / ERYTHROCYTE COUNT / HEMATOCRIT / HEMOGLOBIN / LEUKOCYTE COUNT / LYMPHOCYTE / MEAN CORPUSCULAR HEMOGLOBIN / MEAN CORPUSCULAR HEMOGLOBIN CONCENTRATION / MEAN CORPUSCULAR VOLUME / MONOCYTE / NEUTROPHIL / NUCLEATED RED BLOOD CELLS / PLATELET COUNT: tissue Blood; for ALANINE AMINOTRANSFERASE / ALBUMIN / ALKALINE PHOSPHATASE / ASPARTATE AMINOTRANSFERASE / BLOOD UREA NITROGEN / CARBON DIOXIDE / CHOLESTEROL / CREATINE PHOSPHOKINASE / CREATININE / GLUCOSE / LACTATE DEHYDROGENASE / LIPASE / PHOSPHORUS / POTASSIUM / SODIUM / TOTAL BILIRUBIN / TOTAL PROTEIN / URIC ACID: tissue Plasma
[1] = 0 mg/kg, 72 h, dose level Control, time 3 day
[2] = 0 mg/kg, 120 h, dose level Control, time 5 day
[3] = 18 mg/kg, 72 h, dose level High, time 3 day

## N=C(N)c1ccc(OCCCCCOc2ccc(C(=N)N)cc2)cc1 [PENTAMIDINE]
[1]
  ABSOLUTE BASOPHIL: 0 CELLS/uL
  ABSOLUTE EOSINOPHIL: 193.5 CELLS/uL
  ABSOLUTE LYMPHOCYTE: 15717.5 CELLS/uL
  ABSOLUTE MONOCYTE: 389.33 CELLS/uL
  ABSOLUTE SEGMENTED NEUTROPHIL: 1883 CELLS/uL
  BASOPHIL: 0%
  EOSINOPHIL: 1.17%
  ERYTHROCYTE COUNT: 5.68 x10E6/uL
  HEMATOCRIT: 35.83%
  HEMOGLOBIN: 13.48 G/DL
  LEUKOCYTE COUNT: 18.18 x10E3/uL
  LYMPHOCYTE: 86.67%
  MEAN CORPUSCULAR HEMOGLOBIN: 23.8 pg
  MEAN CORPUSCULAR HEMOGLOBIN CONCENTRATION: 37.68 G/DL
  MEAN CORPUSCULAR VOLUME: 63.27 fL
  MONOCYTE: 2.17%
  NEUTROPHIL: 10%
  NUCLEATED RED BLOOD CELLS: 0 /100WBC
  PLATELET COUNT: 1186.33 x10E3/uL
  ALANINE AMINOTRANSFERASE: 68.5 u/L
  ALBUMIN: 4.37 G/DL
  ALKALINE PHOSPHATASE: 396.33 u/L
  ASPARTATE AMINOTRANSFERASE: 92.5 u/L
  BLOOD UREA NITROGEN: 18 mg/dL
  CARBON DIOXIDE: 24.33 mmol/L
  CHOLESTEROL: 67.17 mg/dL
  CREATINE PHOSPHOKINASE: 378.67 u/L
  CREATININE: 0.19 mg/dL
  GLUCOSE: 178.33 mg/dL
  LACTATE DEHYDROGENASE: 245.17 u/L
  LIPASE: 9.2 u/L
  PHOSPHORUS: 12.37 mg/dL
  POTASSIUM: 6.48 MEQ/L
  SODIUM: 143.28 MEQ/L
  TOTAL BILIRUBIN: 0.23 mg/dL
  TOTAL PROTEIN: 5.65 G/DL
  URIC ACID: 1.6 mg/dL
[2]
  ABSOLUTE BASOPHIL: 0 CELLS/uL
  ABSOLUTE EOSINOPHIL: 27.5 CELLS/uL
  ABSOLUTE LYMPHOCYTE: 13593.17 CELLS/uL
  ABSOLUTE MONOCYTE: 576 CELLS/uL
  ABSOLUTE SEGMENTED NEUTROPHIL: 1836.67 CELLS/uL
  BASOPHIL: 0%
  EOSINOPHIL: 0.17%
  ERYTHROCYTE COUNT: 5.99 x10E6/uL
  HEMATOCRIT: 37.42%
  HEMOGLOBIN: 13.78 G/DL
  LEUKOCYTE COUNT: 16.03 x10E3/uL
  LYMPHOCYTE: 85.17%
  MEAN CORPUSCULAR HEMOGLOBIN: 23.08 pg
  MEAN CORPUSCULAR HEMOGLOBIN CONCENTRATION: 36.83 G/DL
  MEAN CORPUSCULAR VOLUME: 62.6 fL
  MONOCYTE: 3.5%
  NEUTROPHIL: 11.17%
  NUCLEATED RED BLOOD CELLS: 0 /100WBC
  PLATELET COUNT: 1352.5 x10E3/uL
  ALANINE AMINOTRANSFERASE: 49.83 u/L
  ALBUMIN: 4.25 G/DL
  ALKALINE PHOSPHATASE: 331.33 u/L
  ASPARTATE AMINOTRANSFERASE: 86.17 u/L
  BLOOD UREA NITROGEN: 19.5 mg/dL
  CARBON DIOXIDE: 26.67 mmol/L
  CHOLESTEROL: 67.5 mg/dL
  CREATINE PHOSPHOKINASE: 346.17 u/L
  CREATININE: 0.22 mg/dL
  GLUCOSE: 170.67 mg/dL
  LACTATE DEHYDROGENASE: 405.5 u/L
  LIPASE: 8.83 u/L
  PHOSPHORUS: 11.3 mg/dL
  POTASSIUM: 6.06 MEQ/L
  SODIUM: 143.4 MEQ/L
  TOTAL BILIRUBIN: 0.17 mg/dL
  TOTAL PROTEIN: 6.22 G/DL
  URIC ACID: 1.63 mg/dL
[3]
  ABSOLUTE BASOPHIL: 0 CELLS/uL
  ABSOLUTE EOSINOPHIL: 160 CELLS/uL
  ABSOLUTE LYMPHOCYTE: 13847.33 CELLS/uL
  ABSOLUTE MONOCYTE: 361.33 CELLS/uL
  BASOPHIL: 0%
  EOSINOPHIL: 1%
  ERYTHROCYTE COUNT: 5.86 x10E6/uL
  HEMATOCRIT: 36.7%
  HEMOGLOBIN: 13.8 G/DL
  LEUKOCYTE COUNT: 15.4 x10E3/uL
  LYMPHOCYTE: 90%
  MEAN CORPUSCULAR HEMOGLOBIN: 23.57 pg
  MEAN CORPUSCULAR HEMOGLOBIN CONCENTRATION: 37.6 G/DL
  MEAN CORPUSCULAR VOLUME: 62.63 fL
  MONOCYTE: 2.33%
  NEUTROPHIL: 6.67%
  NUCLEATED RED BLOOD CELLS: 0 /100WBC
  PLATELET COUNT: 1444.67 x10E3/uL
  ALANINE AMINOTRANSFERASE: 52 u/L
  ALBUMIN: 4.13 G/DL
  ALKALINE PHOSPHATASE: 303.67 u/L
  ASPARTATE AMINOTRANSFERASE: 79 u/L
  BLOOD UREA NITROGEN: 19 mg/dL
  CARBON DIOXIDE: 26.67 mmol/L
  CHOLESTEROL: 75.33 mg/dL
  CREATINE PHOSPHOKINASE: 308.67 u/L
  CREATININE: 0.22 mg/dL
  GLUCOSE: 158.33 mg/dL
  LACTATE DEHYDROGENASE: 129.67 u/L
  LIPASE: 8.67 u/L
  PHOSPHORUS: 11.17 mg/dL
  POTASSIUM: 6.46 MEQ/L
  SODIUM: 142 MEQ/L
  TOTAL BILIRUBIN: 0.23 mg/dL
  TOTAL PROTEIN: 6.13 G/DL
  URIC ACID: 1.7 mg/dL
